According to US20110009335A1, “Anticancer Treatments” (priority 2008, published 2011):

Assays:
[1] = mouse, in vivo
[2] = tested on: CAKI-1 human renal tumor xenograft; assay: Aplidine with sunitinib, CAKI-1 xenograft in athymic nude mice (Example 2); type: in vivo; settings: doses and schedules tested
Description: (§1) Female athymic nude mice (Harlan Sprague Dawley, Madison, Wis.) were utilized for all experiments. Mice were implanted with tumor fragments or a cell suspension when mice were 5 weeks of age. Animals were housed in ventilated rack caging, 5 mice per cage, with food and water ad libitum. The mice were acclimated for 1 week prior to being implanted with tumor fragments or cell suspensions.
Cells from in vitro passage 4-20 were implanted SC into study mice: 5×10^6 cells/mouse in 0.2 ml 50% Matrigel/50% medium without antibiotics or serum, using a 23 G needle and 1 cc syringe. Bacterial cultures were performed on aliquots of the cells prepared for implantation.
(§2) Tumor measurements were determined as disclosed in Example 1.
Body weights were recorded on treatment days and when tumor sizes were measured. In those days wherein the two drugs were administered the same day, the combination therapy groups were treated by co-administering the two drugs at the same time, with no attempt to sequence the treatments. […]
(§3) Tumor size measurements were recorded twice weekly from the treatment initiation until the termination of the study.
(§4) Mean, standard deviation and standard error of the mean were determined for tumor volume for all animal groups at all assessments. […]

[3] = tested on: MRI-H-121 human renal tumor xenograft; assay: Aplidine with sunitinib, MRI-H-121 xenograft in athymic nude mice (Example 2); type: in vivo; settings: doses and schedules tested
Description: as §1, §2
(§5) Body weights were recorded on treatment days and when tumor sizes were measured. In those days wherein the two drugs were administered the same day, the combination therapy groups were treated by co-administering the two drugs at the same time, with no attempt to sequence the treatments.
(§6) Aplidine was provided in the form of vials of lyophilized aplidine powder which was reconstituted in Cremophor EL/ethanol/water (CEW) 15/15/70 to a concentration of 0.5 mg/ml. The aplidine solution in CEW was diluted in 0.9% Saline to the dosing formulation concentrations, being the final proportion of CEW of 0.18/0.18/0.84. […]
as §3, §4

[4] = tested on: A498 human renal tumor xenograft; assay: Aplidine with sunitinib, A498 xenograft in athymic nude mice (Example 2); type: in vivo; settings: doses tested; sunitinib 40 mg/kg
Description: as §1, §2, §5, §6, §3, §4

**Q.** For `CCN(CC)CCNC(=O)c1c(C)[nH]c(/C=C2\C(=O)Nc3ccc(F)cc32)c1C` [sunitinib], which “effect on body weight / toxicity” value [1] is on record?
**A.** The value was “did not cause a significant decline in mean body weight”.

**Q.** And the “antitumor activity as single agent (monotherapy)” value (“antitumor activity” for short) [2]?
**A.** Its value is “inactive”.

**Q.** What about the “antitumor activity” value [3] of the same compound?
**A.** The value was “refractory”.

**Q.** And the “antitumor activity” value [4]?
**A.** Its value is “did not reach the NCI criteria”.
